# Laboratory results: patent publication US20210386367A1, “DEVICES AND SYSTEMS FOR GASTROINTESTINAL MICROBIOME DETECTION AND MANIPULATION” (Progenity, Inc., priority 2018, published 2021)
# Tests used:
# SIBO Bacteria = conditions: cited from earlier work
# [1] = in vivo, po, 10 mg/kg; cited from earlier work
# B. ovatus MMX 3503 = test: Broth microdilution MIC (time-kill study); assay type: cell-based, Bacteroides ovatus; conditions: Bacteroides ovatus, MMX3503; B. ovatus MMX 3504 (so in the source); read-out: MIC
# E. coli ATCC 25922 = test: Broth microdilution MIC (time-kill study); assay type: cell-based, Escherichia coli; conditions: Escherichia coli, ATCC25922; E. coli ATCC 25922; read-out: MIC
# S. pneumoniae ATCC 49619 = test: Broth microdilution MIC (time-kill study); assay type: cell-based, Streptococcus pneumoniae; conditions: Streptococcus pneumoniae, ATCC49619; S. pneumoniae ATCC 49619; read-out: MIC
# E. coli MMX 1312 = test: Broth microdilution MIC (time-kill study); assay type: cell-based, Escherichia coli; conditions: Escherichia coli, MMX1312; E. coli MMX 1312; read-out: MIC
# S. agalactiae ATCC 13813 = test: Broth microdilution MIC (time-kill study); assay type: cell-based, Streptococcus agalactiae; conditions: Streptococcus agalactiae, ATCC13813
# Clostridium spp. = test: Agar dilution MIC, 10 clinical isolates; assay type: cell-based
# [2] = tested on: E. coli ATCC 35218 (TEM-1 β-lactamase producer); test: Broth microdilution MIC (time-kill study); assay type: cell-based, Escherichia coli; conditions: Escherichia coli, ATCC35218
# B. fragilis ATCC 25285 [3] = test: Broth microdilution MIC (time-kill study); assay type: cell-based, Bacteroides fragilis; conditions: Bacteroides fragilis, ATCC25285; B. fragilis MMX 123 ATCC 25285; read-out: MIC
# B. vulgatus ATCC 8482 = test: Broth microdilution MIC (time-kill study); assay type: cell-based, Bacteroides vulgatus; conditions: Phocaeicola vulgatus, ATCC8482; B. vulgatus ATCC 8482; read-out: MIC
# B. fragilis ATCC 25285 [4] = conditions: B. fragilis MMX 123 ATCC 25285; cited from earlier work
# S. pyogenes ATCC 49399 = test: Broth microdilution MIC (time-kill study); assay type: cell-based, Streptococcus pyogenes; conditions: Streptococcus pyogenes, ATCC49399; S. pyogenes ATCC 49399; read-out: MIC
SMILES,activity against SIBO organisms (SIBO Bacteria),Rat oral exposure (Dose) [1] [μM*h at 10],MIC (B. ovatus MMX 3503) [µg/mL],MIC (E. coli ATCC 25922) [µg/mL],MIC (S. pneumoniae ATCC 49619) [µg/mL],MIC (E. coli MMX 1312) [µg/mL],MIC (S. agalactiae ATCC 13813) [µg/mL],relative activity among drugs tested (Clostridium spp.),MIC [2] [µg/mL],MIC (B. fragilis ATCC 25285 [3]) [µg/mL],MIC (B. vulgatus ATCC 8482) [µg/mL],CLSI QC range (MIC) (B. fragilis ATCC 25285 [4]),MIC (S. pyogenes ATCC 49399) [µg/mL]
C[C@@H](O)[C@H]1C(=O)N2C(C(=O)O)=C(S[C@@H]3CN[C@H](C(=O)Nc4cccc(C(=O)O)c4)C3)[C@H](C)[C@H]12 [ertapenem],active against SIBO organisms,0.39,–,–,–,–,–,–,–,–,–,–,–
"Cc1ncc([N+](=O)[O-])n1CCO [metronidazole, Metronidazole]",–,–,0.5,> 32,> 32,> 32,> 32,meropenem and metronidazole had similar activity,> 32,0.5,0.5,(0.25-2) μg/mL,> 32
